Source: US20260207570A1, “OPTIMIZED DOSING OF LERIGLITAZONE” (MINORYX THERAPEUTICS S.L., priority 2022, published 2026)
Values joined by “and” are separate entries in the source; they are usually repeats but may differ in a detail not shown here. Equal entries are not always repeated. Where two headings read alike, the source gives them in different places.

Columns and labels:
[1] = Phase 1 multiple ascending dose (MAD) pharmacokinetics with CSF collection in healthy volunteers; format: in vivo, human; details: for CSF C4h / concentration at 4 h: total; for accumulation RCmax: day 8 vs day 1; for Vd/F: read-out: Vz/F
Description: (§1) Study design: A phase 1, randomized, double blind, placebo-controlled, single-center clinical study in 33 male healthy volunteers (HV) (19-54 years, 63.2-95.7 Kg) was conducted with leriglitazone HCl and divided in two parts: a single ascending dose (SAD) with three dose levels (30, 90 and 270 mg) in fasted conditions, followed with two dose levels (90 and 270 mg) in fed conditions; a multiple ascending dose (MAD) with a double-blind, parallel-design with two dose levels (135 and 270 mg) for 8 days and a separate cohort of subjects in an open-label parallel design with two dose levels (135 and 270 mg) including cerebrospinal fluid (CSF) collection on day 8. In the fasted conditions a fasting period of at least 4 hours was required before obtaining plasma samples. The food effect (FE) was assessed by comparing fasted with fed conditions (dosing after a high-fat breakfast per FDA definition with a calculated caloric content of 918 kcal). In the MAD part (fed) the medication was taken before a normal breakfast. Leriglitazone HCl was supplied by ChemConnection and an oral suspension of leriglitazone (20% w/v kleptose, 2% ethanol in 100 mM phosphate buffer pH=7.8) at 6 mg/ml was used in the study.
(§2) Blood, Urine and CSF sampling: In the SAD, blood samples were drawn at the following time points: pre-dose and 0.25, 0.5, 0.75, 1, 1.5, 2, 2.5, 3, 4, 5, 6, 8, 10, 12, 16, 24, 36, 48, 72, 96 and 120 hours post-dose. Urine was collected at pre-dose (within 12 hours prior to dosing) and over 0-6, 6-12, 12-24, 24-36, 36-48 hours post-dose collection intervals. In the MAD, blood samples were collected on day 1 at pre-dose and 0.25, 0.5, 0.75, 1, 1.5, 2, 2.5, 3, 4, 5, 6, 8, 10, 12, and 16 hours post-dose and at pre-dose and at 4 hours post-dose on day 2 to day 7, and on day 8 at pre-dose and 0.25, 0.5, 0.75, 1, 1.5, 2, 2.5, 3, 4, 5, 6, 8, 10, 12, 16, 24, 36, 48, 72, 96 and 120 hours post-dose. CSF were taken on day −1 and on day 8, at 4 hours post-dose.
(§3) Pharmacokinetic parameter calculation: PK parameters (Cmax, Tmax, t1/2, AUC0-t, CL/F, Vz/F, AUC0-t, RAUC, RCmax) were estimated using non-compartmental analysis (NCA) (Phoenix WinNonlin® Version 6.3).
(§4) Statistical analysis: Descriptive statistics for all relevant PK parameters: n, mean, minimum, median, maximum, geometric mean, and coefficient of variation (CV %); analysis of variance on Cmax and AUC to determine dose proportionality and food effect (FE).
The ratio of unbound leriglitazone concentration in brain to unbound concentration in plasma (Kpu,u; Cb,u/Cp,u) was calculated dividing the unbound CSF Cmax by the unbound plasma Cmax. Fractions unbound in plasma (fu,p) to obtain the unbound Cmax values were already reported. Rodriguez-Pascau, L. et al., Sci. Transl. Med. 13, eabc0555 (2021).

[2] = Biliary clearance in sandwich-cultured hepatocytes; format: in vitro ADME; details: sandwich-cultured hepatocytes
[3] = test system: sandwich-cultured hepatocytes; assay: Biliary clearance in sandwich-cultured hepatocytes; format: in vitro ADME; details: after scaling up
[4] = Phase 1 single ascending dose (SAD) pharmacokinetics in healthy volunteers; format: in vivo, human; details: for Ka: estimated; for CL/F: geometric mean (CV %)
Description: as §1, §2, §3, §4

CL/F ([1]; 135 mg MD Day 1, n = 8, geometric mean (CV %)): 1.59 (17.8) L./h | CSF C4h ([1]; 135 mg MD Day 8, 4 hours post-dose, geometric mean (CV %)): 188 (15.9) ng/mL | CL/F ([1]; 270 mg MD Day 1, n = 8, geometric mean (CV %)): 1.63 (14.4) L./h | CSF C4h ([1]; 270 mg MD Day 8, 4 hours post-dose, geometric mean (CV %)): 332 (13.4) ng/mL | increase of CSF concentration on doubling the dose ([1]; 270 mg vs 135 mg, day 8, 4 hours post-dose): 1.8 fold | accumulation RCmax ([1]; MAD 135 mg): 1.7 | accumulation RAUC ([1]; MAD 270 mg dose): 1.81 | accumulation RCmax ([1]; MAD 270 mg): 1.7 | time to steady state ([1]; MAD 135 or 270 mg daily, fed): 5 days | CSF Cmax ([1]; human, 135 mg): 188 ng/mL | CSF Cmax ([1]; human, 270 mg): 332 ng/mL | brain penetration ([1]; judged from CSF to plasma concentrations): good | Kp at 4 h ([1]; male, CSF and plasma (unbound), oral, human, 135 mg, unbound CSF Cmax / unbound plasma Cmax, read-out: Kpu, u based on CSF): 0.55 | Kp ([1]; male, CSF and plasma (unbound), oral, human, 270 mg, unbound CSF Cmax / unbound plasma Cmax, read-out: Kpu, u based on CSF): 0.54 | Kp at 4 h ([1]; male, human, CSF and plasma, oral, 135 mg MD Day 8, geometric mean (CV %), read-out: CSF/Plasma): 0.021 | Kp at 4 h ([1]; male, human, CSF and plasma, oral, 270 mg MD Day 8, geometric mean (CV %), read-out: CSF/Plasma): 0.024 | Kp at 4 h ([1]; male, human, CSF and plasma, oral, day 8, 4 hours post-dose, read-out: total concentrations in CSF as share of total plasma concentrations): 0.022 to 0.025 | concentration at 4 h ([1]; male, human, CSF, oral, 135 mg MD Day 8, 4 hours post-dose, geometric mean (CV %), read-out: CSF C4h): 188 ng/mL | concentration at 4 h ([1]; male, human, CSF, oral, 270 mg MD Day 8, 4 hours post-dose, geometric mean (CV %), read-out: CSF C4h): 332 ng/mL | Tmax ([1]; male, human, plasma, oral, 135 mg, 135 mg MD Day 1, n = 8, Median, read-out: Tmax): 3 h | Vd/F ([1]; male, human, plasma, oral, 135 mg, 135 mg MD Day 1, n = 8, geometric mean (CV %)): 47.1 L | Cmax ([1]; male, human, plasma, oral, 135 mg, 135 mg MD Day 1, n = 8, plasma total, geometric mean, read-out: Cmax): 5430 ng/mL | Tmax ([1]; male, human, plasma, oral, 135 mg, 135 mg MD Day 8, n = 8, Median, read-out: Tmax): 4 h | Vd/F ([1]; male, human, plasma, oral, 135 mg, 135 mg MD Day 8, n = 8, geometric mean (CV %)): 27.7 L | Cmax ([1]; male, human, plasma, oral, 135 mg, 135 mg MD Day 8, n = 8, plasma total, geometric mean, read-out: Cmax): 9500 ng/mL | AUC ([1]; male, human, plasma, oral, 135 mg, 135 mg daily, fed, Day 1, read-out: AUC, Observed): 85.1 µg·h/mL | Cmax ([1]; male, human, plasma, oral, 135 mg, 135 mg daily, fed, Day 1, read-out: Cmax, Observed): 5490 ng/mL | Tmax ([1]; male, human, plasma, oral, 135 mg, 135 mg daily, fed, Day 1, read-out: Tmax, Observed): 3 h | AUC ([1]; male, human, plasma, oral, 135 mg, 135 mg daily, fed, Day 8, read-out: AUC, Observed): 145 µg·h/mL | Cmax ([1]; male, human, plasma, oral, 135 mg, 135 mg daily, fed, Day 8, read-out: Cmax, Observed): 9490 ng/mL | Tmax ([1]; male, human, plasma, oral, 135 mg, 135 mg daily, fed, Day 8, read-out: Tmax, Observed): 4 h | AUC ([1]; male, human, plasma, oral, 135 mg, human, 135 mg, read-out: Total plasma AUC): 145 µg·h/mL | Cmax ([1]; male, human, plasma, oral, 135 mg, human, 135 mg, read-out: Total plasma Cmax): 9490 ng/mL | Tmax ([1]; male, human, plasma, oral, 270 mg, 270 mg MD Day 1, n = 8, Median, read-out: Tmax): 3 h | Vd/F ([1]; male, human, plasma, oral, 270 mg, 270 mg MD Day 1, n = 8, geometric mean (CV %)): 52.7 L | Cmax ([1]; male, human, plasma, oral, 270 mg, 270 mg MD Day 1, n = 8, plasma total, geometric mean, read-out: Cmax): 10000 ng/mL | Tmax ([1]; male, human, plasma, oral, 270 mg, 270 mg MD Day 8, n = 7, Median, read-out: Tmax): 4 h | Vd/F ([1]; male, human, plasma, oral, 270 mg, 270 mg MD Day 8, n = 7, geometric mean (CV %)): 29.5 L | Cmax ([1]; male, human, plasma, oral, 270 mg, 270 mg MD Day 8, n = 7, plasma total, geometric mean, read-out: Cmax): 17000 ng/mL | AUC ([1]; male, human, plasma, oral, 270 mg, 270 mg daily, fed, Day 1, read-out: AUC, Observed): 165 µg·h/mL | Cmax ([1]; male, human, plasma, oral, 270 mg, 270 mg daily, fed, Day 1, read-out: Cmax, Observed): 10000 ng/mL | Tmax ([1]; male, human, plasma, oral, 270 mg, 270 mg daily, fed, Day 1, read-out: Tmax, Observed): 3 h | AUC ([1]; male, human, plasma, oral, 270 mg, 270 mg daily, fed, Day 8, read-out: AUC, Observed): 299 µg·h/mL | Cmax ([1]; male, human, plasma, oral, 270 mg, 270 mg daily, fed, Day 8, read-out: Cmax, Observed): 17200 ng/mL | Tmax ([1]; male, human, plasma, oral, 270 mg, 270 mg daily, fed, Day 8, read-out: Tmax, Observed): 4 h | AUC ([1]; male, human, plasma, oral, 270 mg, human, 270 mg, read-out: Total plasma AUC): 299 µg·h/mL | Cmax ([1]; male, human, plasma, oral, 270 mg, human, 270 mg, read-out: Total plasma Cmax): 17200 ng/mL | concentration at 4 h ([1]; male, human, plasma, oral, 270 mg MD Day 8, 4 hours post-dose, geometric mean (CV %), read-out: Plasma C4h): 14200 ng/mL | mean CL/F ([1]; phase 1 MAD part day 8): 0.93 L/h | hepatocyte CLint [2]: 0.358 µL/min/1e6 cells | microsomal CLint [2]: 0.5 µL/min/mg | biliary clearance as fraction of total clearance (feBIL) [3]: 19.5% | dose excreted in urine as free analyte ([4]; 48-hour collection period): < 0.4% | dose excreted in urine as the analyte, mostly in a conjugated state ([4]; 48-hour collection period): 6.5% | Ka ([4]; SAD 30 mg Fasted): 6.35 (CV: 676%) 1/h | CL/F ([4]; SAD 30 mg fasted, n = 6): 0.679 (9.0) L/h | Ka ([4]; SAD 90 mg Fasted): 4.43 (CV: 222%) 1/h | Ka ([4]; SAD 90 mg Fed): 0.89 1/h and 0.89 (CV: 68%) 1/h | CL/F ([4]; SAD 90 mg fasted, n = 6): 0.746 (10.1) L/h | CL/F ([4]; SAD 90 mg fed, n = 3): 0.747 (6.7) L/h
Compound: CC(O)c1ccc(CCOc2ccc(CC3SC(=O)NC3=O)cc2)nc1 (stereo not drawn) [Leriglitazone, 5-[[4-[2-[5-(1-hydroxyethyl)pyridin-2-yl]ethoxy]phenyl]methyl]-1,3-thiazolidine-2,4-dione]
